In patent US10201532B2, “Compounds and their use” (ALLECRA THERAPEUTICS GMBH, priority 2010, dated 2019):

Tests used:
[1] = test system: KPC-3 expressing E. coli (J53 R6206); experiment: microbe, parasite or virus in culture; type: cell-based, Escherichia coli; settings: no BLI; E. coli J53 R6206
Experimental: The β-lactam compound was tested for in vitro antibacterial activities by the broth micro-dilution or agar dilution method as specified in documents published by Clinical and Laboratory Standards Institute (CLSI), USA (formerly NCCLS). Approved standard M7-A7, January 2006, CLSI, Wayne, Pa., USA and M100-S18, January 2008, CLSI, Wayne, Pa., USA.
In agar dilution method briefly, stock solutions of the cephalosporins for veterinary use (e.g. 2 mg/mL) was made in water, 0.1M phosphate buffers or appropriate solvents and the solution was serially two fold diluted. Compound-1 was dissolved in water and Tazobactam (comparator BLI) in 0.1M phosphate buffer, pH 6.0 to get a solution of 1 mg/mL. Cephalosporins were screened in a concentration range of 0.5-32 μg/mL. For combination, Tazobactam or the Compound-1 described herein were tested at a fixed concentration of 4 μg/mL along with the cephalosporins concentration ranging from 0.5 to 32 μg/mL. […] The compound of formula (I) and Tazobactam were also tested individually. The bacterial inoculum was prepared by picking 3 to 5 well isolated bacterial colonies with the same morphological appearance from an 18-24 h old culture and adjusting the turbidity of the saline suspension to 0.5 McFarland turbidity standard equivalent to a bacterial population of ˜1×10^8 CFU per mL of suspension. The suspension was diluted 1:10 in saline to get a bacterial population of ˜1×10^7 CFU/mL as inoculum. This bacterial inoculum was inoculated onto the prepared petri dishes by a multipoint inoculator with each inoculum spot containing ˜1×10^4 CFU of the bacterial strain. The inoculated petri dishes were incubated at 35° C. in an ambient atmosphere for 18-20 h.

[2] = test system: KPC-2 producing K. pneumoniae (ATCC BAA-1705); experiment: Synergistic broth micro-dilution MIC (checkerboard); type: cell-based, Klebsiella pneumoniae; settings: ATCC BAA-1705; for MIC: Klebsiella pneumoniae, ATCCBAA1705, no BLI, read-out: MIC of antibiotic alone (no BLI)
[3] = test system: KPC-3 expressing E. coli (J53 R6206); experiment: as above; type: cell-based, Escherichia coli

Compound | MIC of veterinary cephalosporin alone (no BLI) [1] [µg/mL] | MIC [2] [µg/mL] | MIC of antibiotic alone (no BLI) [3] [µg/mL] | further results
CC1=C(C(=O)O)N2C(=O)[C@@H](NC(=O)[C@H](N)c3ccc(O)cc3)[C@H]2SC1 [Cefadroxil] | >32 | > 64 |  | 
NC(=O)c1cc[n+](CC2=C(C(=O)[O-])N3C(=O)[C@@H](NC(=O)Cc4cccs4)[C@H]3SC2)cc1 [Cefalonium] | 32 | > 64 |  | 
CO/N=C(\C(=O)N[C@@H]1C(=O)N2C(C(=O)[O-])=C(C[N+]3(C)CCCC3)CS[C@H]12)c1csc(N)n1 [Cefepime] |  | > 128 | >16 | 
CO/N=C(\C(=O)N[C@@H]1C(=O)N2C(C(=O)O)=C(COC(C)=O)CS[C@H]12)c1csc(N)n1 [Cefotaxime] |  | > 128 | >32 | 
CO/N=C(\C(=O)N[C@@H]1C(=O)N2C(C(=O)[O-])=C(C[n+]3cccc4c3CCCC4)CS[C@H]12)c1csc(N)n1 [Cefquinome] | 16 |  |  | MIC of antibiotic alone (no BLI) ([2]; no BLI): >64 µg/mL
CO/N=C(\C(=O)N[C@@H]1C(=O)N2C(C(=O)O)=C(CSC(=O)c3ccco3)CS[C@H]12)c1csc(N)n1 [Ceftiofur] | 16 | > 64 |  | 
Nc1nc(/C(=N/O)C(=O)N[C@@H]2C(=O)N3C(C(=O)O)=C(/C=C4\CCN([C@@H]5CCNC5)C4=O)CS[C@H]23)ns1 [Ceftobiprole] |  | > 64 | >32 | 
CC[n+]1ccn(C[C@@]2(C)[C@H](C(=O)O)N3C(=O)C[C@H]3S2(=O)=O)n1 [Compound-2, 1-{[(2S,3S,5R)-2-Carboxy-3-methyl-4,4,7-trioxo-4-thia-1-azabicyclo[3.2.0]hept-3-yl]methyl}-3-ethyl-1H-1,2,3-triazol-3-ium] |  |  |  | MIC of BLI alone ([3]; BLI alone): >16 µg/mL; MIC of Imipenem in combination with BLI ([3]; BLI at 4 μg/mL): 0.5 µg/mL; MIC of Meropenem in combination with BLI ([3]; BLI at 4 μg/mL): <0.125 µg/mL; MIC of Imipenem in combination with BLI ([3]; BLI at 16 μg/mL): 0.25 µg/mL; MIC of Meropenem in combination with BLI ([3]; BLI at 16 μg/mL): <0.125 µg/mL; MIC of BLI alone ([2]; BLI alone): >16 µg/mL; MIC of Imipenem in combination with BLI ([2]; BLI at 4 μg/mL): 4 µg/mL; MIC of Meropenem in combination with BLI ([2]; BLI at 4 μg/mL): 8 µg/mL; MIC of Imipenem in combination with BLI ([2]; BLI at 16 μg/mL): 1 µg/mL; MIC of Meropenem in combination with BLI ([2]; BLI at 16 μg/mL): 2 µg/mL
